Consider 22 molecules from US9745324B2, “Iminothiadiazepane dioxide compounds as BACE inhibitors, compositions, and their use” (Merck Sharp & Dohme Corp., priority 2013, dated 2017).

Like-named read-outs stand apart in the source and are kept apart here.

The target of test [1] is soluble human BACE1 catalytic domain (Homo sapiens (Human), UniProt P56817). Briefly: BACE1 HTRF FRET Assay. The format is biochemical. The conditions noted are these: Ki calculated from IC50 using the Cheng-Prusoff equation; QSY7-APPswe-Eu substrate, pH 5.0. The text has this:
Reagents: Na^+-Acetate pH 5.0; 1% Brij-35; Glycerol; Dimethyl Sulfoxide (DMSO); Recombinant human soluble BACE1 catalytic domain (>95% pure); APP Swedish mutant peptide substrate (QSY7-APP^swe-Eu): QSY7-[…]-Europium-amide (SEQ ID 1).
A homogeneous time-resolved FRET assay can be used to determine IC50 values for inhibitors of the soluble human BACE1 catalytic domain. This assay monitors the increase of 620 nm fluorescence that resulted from BACE1 cleavage of an APPswedish APP^swe mutant peptide FRET substrate (QSY7-[…]-Europium-amide (SEQ ID 1)). This substrate contains an N-terminal QSY7 moiety that serves as a quencher of the C-terminal Europium fluorophore (620 nm Em). […] Inhibition of BACE1 cleavage of the QSY7-APP^swe-Eu substrate by inhibitors is manifested as a suppression of 620 nm fluorescence.
Varying concentrations of inhibitors at 3× the final desired concentration in a volume of 10 ul are preincubated with purified human BACE1 catalytic domain (3 nM in 10 μl) for 30 minutes at 30° C. in reaction buffer containing 20 mM Na-Acetate pH 5.0, 10% glycerol, 0.1% Brij-35 and 7.5% DSMO. Reactions are initiated by addition of 10 μl of 600 nM QSY7-APP^swe-Eu substrate (200 nM final) to give a final reaction volume of 30 μl in a 384 well Nunc HTRF plate. The reactions are incubated at 30° C. for 1.5 hours. The 620 nm fluorescence is then read on a Rubystar HTRF plate reader (BMG Labtechnologies) using a 50 millisecond delay followed by a 400 millisecond acquisition time window. Inhibitor IC50 values are derived from non-linear regression analysis of concentration response curves.

The target of test [2] is purified human autoBACE-2 (Homo sapiens, UniProt Q9Y5Z0). Briefly: BACE-2 Assay (BACE-HTRF assay). The test is classed as biochemical. The conditions noted are these: Ki calculated from IC50 using the Cheng-Prusoff equation, pH 5.0, read-out: BACE2 Ki. On the procedure: DMSO is present at 5% final concentration in the assay. Following laser excitation of sample wells at 320 nm, the fluorescence signal at 620 nm is collected for 400 ms following a 50 μs delay on a RUBYstar HTRF plate reader (BMG Labtechnologies). Raw RFU data is normalized to maximum (1.0 nM BACE/DMSO) and minimum (no enzyme/DMSO) RFU values. […] The Ki values are calculated from the IC50 using the Cheng-Prusoff equation.

Where [3] appears, read: QSY7-EISEVNLDAEFC-Eu-amide substrate.

soluble human BACE1 catalytic domain, sequence (P56817 75-416): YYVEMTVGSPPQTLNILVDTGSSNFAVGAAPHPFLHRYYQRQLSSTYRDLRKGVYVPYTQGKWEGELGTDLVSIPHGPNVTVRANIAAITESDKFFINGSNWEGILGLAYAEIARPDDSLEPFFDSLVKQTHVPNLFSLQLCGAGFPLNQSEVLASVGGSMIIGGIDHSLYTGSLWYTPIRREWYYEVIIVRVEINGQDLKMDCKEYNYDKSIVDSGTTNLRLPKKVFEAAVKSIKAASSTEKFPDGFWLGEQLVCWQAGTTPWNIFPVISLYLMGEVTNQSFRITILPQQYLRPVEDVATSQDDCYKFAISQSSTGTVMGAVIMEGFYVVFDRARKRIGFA
purified human autoBACE-2, sequence (Q9Y5Z0 63-518 limits assumed): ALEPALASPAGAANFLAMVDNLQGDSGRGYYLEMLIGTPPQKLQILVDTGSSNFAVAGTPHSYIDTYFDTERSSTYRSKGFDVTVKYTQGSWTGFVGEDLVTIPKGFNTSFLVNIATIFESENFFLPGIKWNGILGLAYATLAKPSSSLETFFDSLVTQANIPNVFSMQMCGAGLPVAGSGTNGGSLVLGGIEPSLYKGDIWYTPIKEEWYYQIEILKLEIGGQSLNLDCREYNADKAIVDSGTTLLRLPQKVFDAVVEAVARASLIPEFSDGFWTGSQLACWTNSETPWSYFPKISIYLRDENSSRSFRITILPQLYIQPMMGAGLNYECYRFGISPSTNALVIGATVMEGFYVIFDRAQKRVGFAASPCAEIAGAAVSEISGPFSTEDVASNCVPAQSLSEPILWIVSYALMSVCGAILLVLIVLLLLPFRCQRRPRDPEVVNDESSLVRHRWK

As to `CN1C[C@@](C)(c2cc(NC(=O)c3ncc(Cl)cc3F)ccc2F)NC(=N)C(C)(C)S1(=O)=O` [Example 23, 5-chloro-3-fluoro-N-{4-fluoro-3-[(4R)-6-imino-2,4,7,7-tetramethyl-1,1-dioxido-1,2,5-thiadiazepan-4-yl]phenyl}pyridine-2-carboxamide], the values for the inhibition constant (Ki) in test [1] and in test [2] (setting [3]) were 21 nM and 6.4 nM, respectively.
Turning to `COCCC(=O)Nc1ccc(F)c([C@]2(C)CN(C)S(=O)(=O)C(C)(C)C(=N)N2)c1` [Example 24, N-{4-fluoro-3-[(4R)-6-imino-2,4,7,7-tetramethyl-1,1-dioxido-1,2,5-thiadiazepan-4-yl]phenyl}-3-methoxypropanamide], the Ki in test [1] is > 9760 nM; in test [2] (setting [3]) it was 4090 nM.
For the molecule `COCC(=O)Nc1ccc(F)c([C@]2(C)CN(C)S(=O)(=O)C(C)(C)C(=N)N2)c1` [Example 25, N-{4-fluoro-3-[(4R)-6-imino-2,4,7,7-tetramethyl-1,1-dioxido-1,2,5-thiadiazepan-4-yl]phenyl}-2-methoxyacetamide], the results for the Ki in test [1] and in test [2] (setting [3]) were 756 nM and 122 nM, respectively.
On to `CN1C[C@@](C)(c2cc(NC(=O)c3cn(C)nc3C(F)(F)F)ccc2F)NC(=N)C(C)(C)S1(=O)=O` [Example 26, N-{4-fluoro-3-[(4R)-6-imino-2,4,7,7-tetramethyl-1,1-dioxido-1,2,5-thiadiazepan-4-yl]phenyl}-1-methyl-3-(trifluoromethyl)-1H-pyrazole-4-carboxamide], for which the Ki is 8790 nM in test [1] and 6510 nM in test [2] (setting [3]).
For `CN1C[C@@](C)(c2cc(NC(=O)c3cn4ccsc4n3)ccc2F)NC(=N)C(C)(C)S1(=O)=O` [Example 27, N-{4-fluoro-3-[(4R)-6-imino-2,4,7,7-tetramethyl-1,1-dioxido-1,2,5-thiadiazepan-4-yl]phenyl}imidazo[2,1-b][1,3]thiazole-6-carboxamide] the same measures were 285 nM and 46 nM.
On the same counts, the results for `CN1C[C@@](C)(c2cc(NC(=O)C(F)F)ccc2F)NC(=N)C(C)(C)S1(=O)=O` [Example 28, 2,2-difluoro-N-{4-fluoro-3-[(4R)-6-imino-2,4,7,7-tetramethyl-1,1-dioxido-1,2,5-thiadiazepan-4-yl]phenyl}acetamide] are 1200 nM and 354 nM.
For `CO[C@H](C)C(=O)Nc1ccc(F)c([C@]2(C)CN(C)S(=O)(=O)C(C)(C)C(=N)N2)c1` [Example 29, (2R)-N-{4-fluoro-3-[(4R)-6-imino-2,4,7,7-tetramethyl-1,1-dioxido-1,2,5-thiadiazepan-4-yl]phenyl}-2-methoxypropanamide] the same measures were 4680 nM and 798 nM.
For the molecule `CN1C[C@@](C)(c2cc(NC(=O)CC3CC3)ccc2F)NC(=N)C(C)(C)S1(=O)=O` [Example 30, 2-cyclopropyl-N-{4-fluoro-3-[(4R)-6-imino-2,4,7,7-tetramethyl-1,1-dioxido-1,2,5-thiadiazepan-4-yl]phenyl}acetamide], the inhibitory constant (Ki) in test [1] was > 9760 nM; in test [2] (setting [3]) it was 2190 nM.
In the case of `CN1C[C@@](C)(c2cc(NC(=O)c3ncc(C(F)(F)F)cn3)ccc2F)NC(=N)C(C)(C)S1(=O)=O` [Example 31, N-{4-fluoro-3-[(4R)-6-imino-2,4,7,7-tetramethyl-1,1-dioxido-1,2,5-thiadiazepan-4-yl]phenyl}-5-(trifluoromethyl)pyrimidine-2-carboxamide], the figures for the Ki in test [1] and in test [2] (setting [3]) were 189 nM and 202 nM, respectively.
Take `Cc1nc(C(=O)Nc2ccc(F)c([C@]3(C)CN(C)S(=O)(=O)C(C)(C)C(=N)N3)c2)c(C)o1` [Example 32, N-{4-fluoro-3-[(4R)-6-imino-2,4,7,7-tetramethyl-1,1-dioxido-1,2,5-thiadiazepan-4-yl]phenyl}-2,5-dimethyl-1,3-oxazole-4-carboxamide]: the results for the inhibitory constant (Ki) in test [1] and in test [2] (setting [3]) were 165 nM and 54 nM, respectively.
For `CN1C[C@@](C)(c2cc(NC(=O)C3CC3)ccc2F)NC(=N)C(C)(C)S1(=O)=O` [Example 33, N-{4-fluoro-3-[(4R)-6-imino-2,4,7,7-tetramethyl-1,1-dioxido-1,2,5-thiadiazepan-4-yl]phenyl}cyclopropanecarboxamide], the Ki was 4350 nM in test [1] and 1030 nM in test [2] (setting [3]).
Take `CO[C@@H](C)C(=O)Nc1ccc(F)c([C@]2(C)CN(C)S(=O)(=O)C(C)(C)C(=N)N2)c1` [Example 34, (2S)-N-{4-fluoro-3-[(4R)-6-imino-2,4,7,7-tetramethyl-1,1-dioxido-1,2,5-thiadiazepan-4-yl]phenyl}-2-methoxypropanamide]: the Ki is 3060 nM in test [1] and 1120 nM in test [2] (setting [3]).
Consider `CC(=O)Nc1ccc(F)c([C@]2(C)CN(C)S(=O)(=O)C(C)(C)C(=N)N2)c1` [Example 35, N-{4-fluoro-3-[(4R)-6-imino-2,4,7,7-tetramethyl-1,1-dioxido-1,2,5-thiadiazepan-4-yl]phenyl}acetamide], for which the inhibitory constant (Ki) was 5930 nM in test [1] and 917 nM in test [2] (setting [3]).
On the same counts, the results for `C#CCOc1ccc(C(=O)Nc2ccc(F)c([C@]3(C)CN(C)S(=O)(=O)C(C)(C)C(=N)N3)c2)nc1` [Example 36, N-{4-fluoro-3-[(4R)-6-imino-2,4,7,7-tetramethyl-1,1-dioxido-1,2,5-thiadiazepan-4-yl]phenyl}-5-(prop-2-yn-1-yloxy)pyridine-2-carboxamide] are 15 nM and 195 nM.
On the same counts, the results for `CN1C[C@@](C)(c2cc(NC(=O)c3cnc(C(F)(F)F)cn3)ccc2F)NC(=N)C(C)(C)S1(=O)=O` [Example 37, N-{4-fluoro-3-[(4R)-6-imino-2,4,7,7-tetramethyl-1,1-dioxido-1,2,5-thiadiazepan-4-yl]phenyl}-5-(trifluoromethyl)pyrazine-2-carboxamide] are 153 nM and 361 nM.
As for `CN1C[C@@](C)(c2cc(NC(=O)c3ccc(OCF)cn3)ccc2F)NC(=N)C(C)(C)S1(=O)=O` [Example 38, N-{4-fluoro-3-[(4R)-6-imino-2,4,7,7-tetramethyl-1,1-dioxido-1,2,5-thiadiazepan-4-yl]phenyl}-5-(fluoromethoxy)pyridine-2-carboxamide], the results for the inhibitory constant (Ki) in test [1] and in test [2] (setting [3]) were 37 nM and 46 nM, respectively.
For `C#CCOc1cnc(C(=O)Nc2ccc(F)c([C@]3(C)CN(C)S(=O)(=O)C(C)(C)C(=N)N3)c2)cn1` [Example 39, N-{4-fluoro-3-[(4R)-6-imino-2,4,7,7-tetramethyl-1,1-dioxido-1,2,5-thiadiazepan-4-yl]phenyl}-5-(prop-2-yn-1-yloxy)pyrazine-2-carboxamide] the same measures were 2.3 nM and 34.3 nM.
As for `CN1C[C@@](C)(c2cc(OCc3ccc(C#N)cc3)ccc2F)NC(=N)C(C)(C)S1(=O)=O` [Example 40, (R)-4-((4-fluoro-3-(6-imino-2,4,7,7-tetramethyl-1,1-dioxido-1,2,5-thiadiazepan-4-yl)phenoxy)methyl)benzonitrile], the inhibition constant (Ki) is 651 nM in test [1] and 4050 nM in test [2] (QSY7-[…]-Eu-amide substrate).
As for `CN1C[C@@](C)(c2cc(Nc3nccc4cc(C#N)cnc34)ccc2F)NC(=N)C(C)(C)S1(=O)=O` [Example 41, (R)-8-((4-fluoro-3-(6-imino-2,4,7,7-tetramethyl-1,1-dioxido-1,2,5-thiadiazepan-4-yl)phenyl)amino)-1,7-naphthyridine-3-carbonitrile], the Ki is 20 nM in test [1] and 16 nM in test [2] (QSY7-[…]-Eu-amide substrate).
On the same counts, the results for `CN1C[C@@](C)(c2cc(Nc3nccc4cc(Br)cnc34)ccc2F)NC(=N)C(C)(C)S1(=O)=O` [Example 42, (R)-4-(5-((3-bromo-1,7-naphthyridin-8-yl)amino)-2-fluorophenyl)-6-imino-2,4,7,7-tetramethyl-1,2,5-thiadiazepane 1,1-dioxide] are 18 nM and 9 nM.
As for `COc1cnc2c(Nc3ccc(F)c([C@]4(C)CN(C)S(=O)(=O)C(C)(C)C(=N)N4)c3)nccc2c1` [Example 43, (R)-4-(2-fluoro-5-((3-methoxy-1,7-naphthyridin-8-yl)amino)phenyl)-6-imino-2,4,7,7-tetramethyl-1,2,5-thiadiazepane 1,1-dioxide], the values for the Ki in test [1] and in test [2] (QSY7-[…]-Eu-amide substrate) were 209 nM and 240 nM, respectively.
For the molecule `CN1C[C@@](C)(c2cc(Nc3nccn4ccnc34)ccc2F)NC(=N)C(C)(C)S1(=O)=O` [Example 44, (R)-4-(2-fluoro-5-(imidazo[1,2-a]pyrazin-8-ylamino)phenyl)-6-imino-2,4,7,7-tetramethyl-1,2,5-thiadiazepane 1,1-dioxide], the Ki in test [1] is 1350 nM; in test [2] (QSY7-[…]-Eu-amide substrate) it was 270 nM.

As a reminder, the Ki is the dissociation constant of the complex between target and ligand, obtained from inhibition or displacement.
